# Measured values: ChEMBL document CHEMBL1201862, “PubChem BioAssay data set” (2004)
#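 Five concentrations, 48 hours, 96-well plates. GI50 = concentration required for 50% inhibition of growth.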 Active and inactive are the calls of the source. Cut-off read from the data, not from the text of the source: active = GI50 up to about 1.1 µM and inactive = higher.
# Columns and labels:
# Assay in all cases: growth of human tumour cells (NCI), 48 h
# [1] = tested on: ACHN
# [2] = tested on: CAKI-1
# [3] = tested on: EKVX
# [4] = tested on: HL-60
# [5] = tested on: HOP-62
# [6] = tested on: M14
# [7] = tested on: NCI-H522
# [8] = tested on: OVCAR-3
# [9] = tested on: OVCAR-8
# [10] = tested on: SF-295
# [11] = tested on: SK-OV-3
# [12] = tested on: SN12C
# [13] = tested on: UACC-257
# [14] = tested on: UACC-62
# [15] = tested on: UO-31
# [16] = tested on: SR
Structure (SMILES),GI50 [1],GI50 [2],GI50 [3],GI50 [4],GI50 [5],GI50 [6],GI50 [7],GI50 [8],GI50 [9],GI50 [10],GI50 [11],GI50 [12],GI50 [13],GI50 [14],GI50 [15],GI50 [16]
O=C(CCc1cc(-c2ccccc2)nc(S)n1)N(Cc1ccccc1)Cc1ccccc1,> 100 µM (inactive),> 100 µM (inactive),> 100 µM (inactive),> 100 µM (inactive),> 100 µM (inactive),> 100 µM (inactive),> 100 µM (inactive),> 100 µM (inactive),> 100 µM (inactive),> 100 µM (inactive),> 100 µM (inactive),> 100 µM (inactive),> 100 µM (inactive),> 100 µM (inactive),> 100 µM (inactive),–
O/N=C\C(=N/O)Nc1ccc(Cc2ccc(NC(/C=N\O)=N/O)cc2)cc1,31.6 µM (inactive),18.8 µM (inactive),25.4 µM (inactive),22.5 µM (inactive),27.4 µM (inactive),27.5 µM (inactive),29.6 µM (inactive),42.3 µM (inactive),36.1 µM (inactive),21.7 µM (inactive),33.2 µM (inactive),35.3 µM (inactive),56.1 µM (inactive),21.2 µM (inactive),13.2 µM (inactive),–
COC(=O)/C(=N/Nc1cccc(Cl)c1)C(C(=O)C(=O)Nc1cccc(Cl)c1C)c1nc2ccccc2nc1C (configuration not stated),11.6 µM (inactive),52.6 µM (inactive),> 100 µM (inactive),29.6 µM (inactive),38.3 µM (inactive),53.5 µM (inactive),> 100 µM (inactive),> 100 µM (inactive),> 100 µM (inactive),> 100 µM (inactive),> 100 µM (inactive),60.7 µM (inactive),> 100 µM (inactive),24.6 µM (inactive),20.1 µM (inactive),90.4 µM (inactive)
COC1CC(OS(=O)(=O)c2ccc([N+](=O)[O-])cc2)C(OC(=O)c2ccccc2)C(C)O1 (configuration not stated),> 100 µM (inactive),> 100 µM (inactive),–,> 100 µM (inactive),> 100 µM (inactive),> 100 µM (inactive),> 100 µM (inactive),> 100 µM (inactive),> 100 µM (inactive),> 100 µM (inactive),–,> 100 µM (inactive),> 100 µM (inactive),> 100 µM (inactive),–,> 100 µM (inactive)
NCCn1ccc(NC(c2ccccc2)(c2ccccc2)c2ccccc2)nc1=O,54.7 µM (inactive),–,21.3 µM (inactive),17.7 µM (inactive),30.1 µM (inactive),–,18.1 µM (inactive),25.8 µM (inactive),39.8 µM (inactive),19.8 µM (inactive),–,20.3 µM (inactive),19.5 µM (inactive),–,> 100 µM (inactive),19.4 µM (inactive)
CCCOP1(=O)C=C(O)C(Cl)=C(C)C1 (configuration not stated),> 100 µM (inactive),–,> 100 µM (inactive),> 100 µM (inactive),> 100 µM (inactive),> 100 µM (inactive),> 100 µM (inactive),> 100 µM (inactive),> 100 µM (inactive),> 100 µM (inactive),> 100 µM (inactive),> 100 µM (inactive),> 100 µM (inactive),> 100 µM (inactive),> 100 µM (inactive),> 100 µM (inactive)
CCOC(=O)CC1COc2ccc3c(c21)OCO3 (configuration not stated),> 100 µM (inactive),–,> 100 µM (inactive),> 100 µM (inactive),> 100 µM (inactive),> 100 µM (inactive),–,> 100 µM (inactive),> 100 µM (inactive),> 100 µM (inactive),> 100 µM (inactive),> 100 µM (inactive),> 100 µM (inactive),> 100 µM (inactive),> 100 µM (inactive),> 100 µM (inactive)
COc1ccc(/C=N/NC(=O)CSc2nc(-c3ccccc3)c(-c3ccccc3)[nH]2)cc1OC,31.3 µM (inactive),33.1 µM (inactive),31 µM (inactive),20.3 µM (inactive),39.3 µM (inactive),17.7 µM (inactive),19.7 µM (inactive),17.1 µM (inactive),16.2 µM (inactive),24.2 µM (inactive),26.4 µM (inactive),30.1 µM (inactive),27.1 µM (inactive),23.5 µM (inactive),25.5 µM (inactive),–
COc1ccc(C2S/C(=C\c3ccccc3O)C(=O)N2NC(=O)Cc2ccccc2)cc1 (configuration not stated),> 100 µM (inactive),> 100 µM (inactive),–,60.5 µM (inactive),> 100 µM (inactive),> 100 µM (inactive),> 100 µM (inactive),–,83.2 µM (inactive),> 100 µM (inactive),> 100 µM (inactive),> 100 µM (inactive),> 100 µM (inactive),78.7 µM (inactive),> 100 µM (inactive),37.4 µM (inactive)
COc1ccc(C2NC3=C(CCCC3)N2)cc1,> 100 µM (inactive),–,–,29 µM (inactive),> 100 µM (inactive),37.4 µM (inactive),40.2 µM (inactive),71 µM (inactive),> 100 µM (inactive),78 µM (inactive),42.6 µM (inactive),> 100 µM (inactive),> 100 µM (inactive),–,77.6 µM (inactive),44.8 µM (inactive)
Cc1c(/C=N/N=C/c2[nH]c(C(=O)OC(C)(C)C)c(C)c2C)[nH]c(C(=O)OC(C)(C)C)c1C,–,> 100 µM (inactive),> 100 µM (inactive),43.3 µM (inactive),> 100 µM (inactive),> 100 µM (inactive),66.5 µM (inactive),> 100 µM (inactive),98.9 µM (inactive),> 100 µM (inactive),> 100 µM (inactive),> 100 µM (inactive),> 100 µM (inactive),> 100 µM (inactive),> 100 µM (inactive),> 100 µM (inactive)
CCCCCCCCCCC(O)CCCCCCC(=O)O (configuration not stated),22.5 µM (inactive),36.3 µM (inactive),31.7 µM (inactive),8.05 µM (inactive),35.9 µM (inactive),19.1 µM (inactive),24.5 µM (inactive),19.9 µM (inactive),16.2 µM (inactive),27.1 µM (inactive),78.3 µM (inactive),21.1 µM (inactive),69.3 µM (inactive),19.8 µM (inactive),29.9 µM (inactive),15.1 µM (inactive)
O=C(OCc1ccccc1)N1N=NC2C3CC(OCc4ccccc4)(OCc4ccccc4)C(O3)C21 (configuration not stated),29.6 µM (inactive),25.7 µM (inactive),–,7.59 µM (inactive),24.7 µM (inactive),23.6 µM (inactive),–,16.6 µM (inactive),–,22.1 µM (inactive),99.3 µM (inactive),41.9 µM (inactive),14 µM (inactive),17.1 µM (inactive),4.65 µM (inactive),–
Cc1cc(NS(=O)(=O)c2ccc(Nc3c4ccccc4nc4c(C(=O)N5CCN(CCOS(C)(=O)=O)CC5)cccc34)cc2)no1,> 100 µM (inactive),> 100 µM (inactive),–,> 100 µM (inactive),> 100 µM (inactive),> 100 µM (inactive),–,> 100 µM (inactive),> 100 µM (inactive),> 100 µM (inactive),> 100 µM (inactive),> 100 µM (inactive),> 100 µM (inactive),> 100 µM (inactive),> 100 µM (inactive),–
COC(=O)/C(=C/c1ccc(OC)cc1)C(C(=O)O)=C(C)C,–,> 100 µM (inactive),> 100 µM (inactive),> 100 µM (inactive),> 100 µM (inactive),> 100 µM (inactive),> 100 µM (inactive),> 100 µM (inactive),> 100 µM (inactive),> 100 µM (inactive),> 100 µM (inactive),> 100 µM (inactive),> 100 µM (inactive),> 100 µM (inactive),> 100 µM (inactive),> 100 µM (inactive)
CC1OC(OCC2OC(Oc3c(-c4ccc(O)cc4)oc4cc(O)cc(O)c4c3=O)C(OC3OCC(O)(CO)C3O)C(O)C2O)C(O)C(O)C1O (configuration not stated),> 100 µM (inactive),> 100 µM (inactive),> 100 µM (inactive),21.2 µM (inactive),> 100 µM (inactive),> 100 µM (inactive),> 100 µM (inactive),> 100 µM (inactive),> 100 µM (inactive),> 100 µM (inactive),> 100 µM (inactive),> 100 µM (inactive),> 100 µM (inactive),> 100 µM (inactive),> 100 µM (inactive),> 100 µM (inactive)
CCOC(=O)c1oc2c(OC)ccc3c2c1CCC3,> 100 µM (inactive),–,> 100 µM (inactive),> 100 µM (inactive),> 100 µM (inactive),> 100 µM (inactive),> 100 µM (inactive),> 100 µM (inactive),> 100 µM (inactive),> 100 µM (inactive),> 100 µM (inactive),> 100 µM (inactive),0.404 µM (active),> 100 µM (inactive),33.6 µM (inactive),> 100 µM (inactive)
CCOC(=O)C1S/C(=N\c2ccccc2)N=C1C (configuration not stated),39.7 µM (inactive),–,64.1 µM (inactive),59.6 µM (inactive),> 100 µM (inactive),–,44.7 µM (inactive),97.1 µM (inactive),> 100 µM (inactive),> 100 µM (inactive),–,> 100 µM (inactive),> 100 µM (inactive),–,53.3 µM (inactive),45.3 µM (inactive)
NC(C(=O)O)c1ccc(C(=O)O)cc1 (configuration not stated),> 100 µM (inactive),> 100 µM (inactive),> 100 µM (inactive),> 100 µM (inactive),> 100 µM (inactive),> 100 µM (inactive),> 100 µM (inactive),> 100 µM (inactive),> 100 µM (inactive),> 100 µM (inactive),> 100 µM (inactive),> 100 µM (inactive),> 100 µM (inactive),> 100 µM (inactive),> 100 µM (inactive),> 100 µM (inactive)
